From article PMC8901119 (Chemical Science, 2021)
Values joined by “and” are separate entries in the source; they are usually repeats but may differ in a detail not shown here. Identical values can stand only once. “Also recorded” adds a separate entry of the source. Starred links: 1 amine or outer side, 2 acyl side, 3 side chain; linkers in the order of their positions; H or OH if unused. Non-standard residues stand in square brackets, D forms with d. Residues, ends and D or L forms follow the SMILES beside them. Ala(7-MeO-coumarin-4-yl) = COc1ccc2c(C[C@H](N)C(=O)O)cc(=O)oc2c1; X1 = C[C@H](NC(=S)[C@H](CCCNC(=N)N)N[*:1])C(=O)[*:2]

How the values were obtained:
Cts V = molecular target: T1, Cts V (Homo sapiens, UniProt O60911); experiment: Cathepsin V inhibition assay with Z-LR-AMC; assay type: biochemical; conditions: pH 5.5, 27 °C, approximate
T1 construct: purchased Sigma-Aldrich; host or cells: FreeStyle 293-F cells
Protocol: (§1) Phan et al. Electronic SupplementaryInformation
Cathepsin V Inhibition Assay. For cathepsin V (Cts V, 0.38 mg/mL, solution; recombinant, expressed in FreeStyle™ 293-F cells, ≥90% pure by SDS-PAGE), various concentrations of the […]
A stock solution of 0.35 mg/mL enzyme
Three independent trials were
Similar to the analysis with Cts L, these curves
CA) using Eq. S1 to determine Vmax and KM (Table S19). 5 Turnover number (k cat) was calculated by dividing V max by the enzyme concentration (Table S19).
(§2) Similar analysis was done for Cts V, Cts K, Cts S, and Cts B to evaluate and approximate the inhibitory effects of the thiopeptide RS1A. Initial evaluation of the kinetic parameters were obtained […]
(§3) 24), then the data were further analyzed with the non-linear regression method with a mixed - […]
(§4) the mechanism with the parameter α. Further fitting to an appropriate model (e.g. uncompetitive, competitive, or non-competitive model) was performed if needed. The approximate kinetic parameters resulted from best fit models for the RS1A peptide and the corresponding proteases are […]
(§5) Table S24. Approximate Kinetic Parameters for Cts L, V, K, S, and B Inhibition by R S1A Peptide (μHLFR SAμ).
(§6) Protease α (Best Fitted Model) KI (μM) αKI or KI'
(§7) Cts S Very large (Competitive) 53.47 ± 11.42 - Cts B Very large (Competitive) >> 50 -

[1] = Stability of peptides in HepG2 whole cell lysate; assay type: in vitro ADME; conditions: human, 20 μM peptide, 0.05 mg/mL lysate, HPLC
Protocol: Stability of Peptides in HepG2 Whole Cell Lysate
Using the same conditions as the previous Cts L Activity Assay in HepG2 Whole Cell Lysate, 50 μL peptide (either R1A or RS1A; final concentration 20 μM) was incubated in 50 μL HepG2 whole cell lysate (to a final concentration of 0.05 mg/mL) in the assay buffer for different time points.
The all-amide peptide, R 1A, was incubated for t = 0, 5, 10, 15, 20, and 30 minutes. The thioamide peptide, RS1A, was incubated for t = 0, 2, 6, 8, 10, and 24 hours. After incubation for the desired amount of time, 100 μL methanol was added to the mixture and incubated at -20 °C for 10 minutes before spinning down at 13,000 rpm for 10 minutes. Then, 180 μL of each mixture was further diluted with 220 μL Milli-Q water to a total volume of 400 μL before adding 1 μL 0.42 mM coumarin internal standard for HPLC analysis. The coumarin internal standard was used to normalize the amount of intact peptide in each sample. A Phenomenex Luna® Omega 5 µm PS C18 100 Å analytical column was used to analyze all samples using the same gradient of 20-40 % B over 20 minutes (Solvent A: 0.1% TFA in Milli-Q water; Solvent B: 0.1% TFA in acetonitrile).
Representative HPLC spectra (325 nm) at different time points were also shown to confirm the stability of the peptides in HepG2 whole cell lysate (Figure S26 A & B). MALDI MS was used to confirm the mass from each fraction from the HPLC from experiment with the all-amide peptide (R 1A – expected [M+H]+ = 1133.51 m/z) and the thioamide peptide ( RS1A – expected [M+H]+ = 1149.48 m/z). To calculate the percent intact peptide for each sample, the average ratio of intact peptide to internal standard was compared to that ratio at t = 0. For each time point, the experiment

Cts L [2] = molecular target: T2, Cts L (Homo sapiens, UniProt P07711); experiment: Cathepsin L activity assay with HepG2 whole cell lysate; assay type: biochemical; set-up: Cts L activity in human hepatocellular carcinoma HepG2 whole cell lysate; host or cells: HepG2 whole cell lysate; conditions: 0.05 mg/mL lysate, 200 μM Ac-FR-AFC, 37 °C, 1 h
Protocol: Cts L activity in human hepatocellular carcinoma HepG2 whole cell lysate (200 μg at 2.5 mg mL^−1; ab166833; Abcam, Cambridge, MA) was evaluated using a fluorometric Cathepsin L Activity Assay Kit (ab65306; Abcam, Cambridge, MA, USA) following the manufacturer's protocols. […] The cell lysate and the peptide inhibitor were incubated at room temperature for 10 min. A total of 2 μL of 10 mM CL substrate Ac-FR-AFC substrate (to a final concentration of 200 μM) was then added to each well, except the Lysate Background Control wells. Different concentrations (56 nM, 560 nM, and 1 μM) of SID 26681509, a known Cts L inhibitor, were used as positive controls. The samples were mixed; the plate was sealed to avoid evaporation and incubated at 37 °C for 1 h. The fluorescence of each sample was measured at 505 nm with an excitation wavelength of 400 nm on the Tecan plate reader. […]
Cts L activity in human hepatocellular carcinoma HepG2 whole cell lysate (200 µg at 2.5 mg/ml; ab166833; Abcam, Cambridge, MA, USA) was evaluated using a fluorometric Cathepsin L Activity Assay Kit (ab65306; Abcam) following the manufacturer’s protocols. […] The fluorescence of each sample was measured […]
fluorescence data shown in Figure 4 in the main text are the average of three replicates. […]

cathepsin B (Cts B) = conditions: human, 27 °C, up to 100 min
[3] = HepG2 whole cell lysate in CL assay buffer; conditions: human, 37 °C, up to 30 minutes (R1A); 24 hours (RS1A)
HepG2 whole cell lysate = conditions: human, 37 °C, up to 24 hours
Cts L [4] = molecular target: T2, Cts L; experiment: Cathepsin L inhibition assay with Z-FR-AMC; conditions: Cts L, mixed inhibition model fit, Z-FR-AMC, pH 5.5, 27 °C
Protocol: The peptide inhibitors were pre-incubated with the appropriate proteases in the assay buffer for 10 min to ensure full interactions prior being added to the fluorogenic substrates. The fluorescence of the reaction was monitored as a function of time at 460 nm with an excitation wavelength of 380 nm by a Tecan M1000 plate reader. Each assay was done in triplicates to ensure reproducibility.
Cathepsin L Inhibition Assay. For cathepsin L (Cts L, ≥ 0.5 units/mg protein, solution; from human liver), various concentrations of the substrate Z-FR-AMC (1 μM, 2 μM, 3 μM, 5 μM, 7
μM, 10 μM, 15 μM, and 20 μM) were reacted with 37.9 nM Cts L in a 96-well plate at 27 °C.
Assay buffer consisted of100 mM sodium acetate, 100 mM NaCl, 1 mM EDTA, and 5 mM DTT
with this KSP1 peptide were conducted in 12.3 mM Na2HPO4, 87.7 mM NaH2PO4, 100 mM NaCl,
5 mM DTT, 1 mM EDTA, pH 6.0 at 27 °C – the buffer condition used for this peptide construct
3 A stock solution of 220 μg/mL enzyme in 20 mM malonate, 1 mM EDTA, 400
mM NaCl, pH 5.5 was diluted with the assay buffer. Peptide (inhibitor) stock solutions were
prepared in a minimal amount of Milli-Q water then diluted to the desired concentrations with the
assay buffer. A 5 mM stock solution of the fluorogenic substrate Z-FR-AMC (Bachem; Torrance, CA, USA) was initially prepared in DMSO and diluted with assay buffer. The diluted solution of
Cts L was incubated in the assay buffer with or without the peptide inhibitor at room temperature
for 10 min. For each 50 μL reaction, 25 μL of this Cts L solution (either with or without the peptide inhibitor) was added to 25 μL diluted Z-FR-AMC substrate to initiate the reaction. The fluorescence of the reaction was monitored as a function of time at 460 nm with an excitation wavelength of 380 nm on the Tecan M1000 plate reader. Three independent trials were performed
for each assay to ensure reproducibility. For analysis, the fluorescence data was converted to rates
of proteolysis in terms of concentration (μM/min) by a conversion factor calculated from a linear
fit of the endpoint fluorescence at complete hydrolysis versus substrate concentration. The initial reaction rate was then calculated by extracting the slope of a linear fit of the first 2 min of the
progress curve (Figures S13-S19). These curves were fit to a Michaelis-Menten enzyme kinetic
Kinetics Analysis of the Peptide Inhibitors of Cathepsin L, V, K, B, and S
For Cts L, from initial evaluation of the kinetic parameters obtained from fitting to Michaelis-
data from Z-FR-AMC inhibition assays with Cts L was thus further fitted to a general Mixed
Inhibition Model in GraphPad Prism version 8.4.3 (GraphPad Software; La Jolla, CA), using
A mixed Inhibition Mechanism for Reversible Inhibitors. Abbreviations: E: enzymes;
S: substrate; I: inhibitor; P: product; EI: enzyme-inhibitor complex; ESI: enzyme-substrate-
inhibitor complex; KI: dissociation constant for the EI complex; αK I (also known as KI'):
dissociation constant for the ESI complex.
This general mixed-inhibition model uses a global fitting in which Vmax, KM, KI, constant α and are
shared. The constant α here determines the degree to which inhibitor binding changes the affinity
of the enzyme for substrate; the value of α is always greater than zero.5, 6 An α = 1 (K I = αKI)
complex (ES); the model then becomes identical to a noncompetitive inhibition model.5, 6 When α
> 1, the inhibitor binds preferentially to the free enzyme (E); if α = ∞, the inhibitor binds almost
exclusively the free enzyme and this model becomes identical to competitive inhibition.5, 6 If 0 <α

Cts B = molecular target: T3, Cts B (Homo sapiens, UniProt P07858); experiment: Cathepsin B inhibition assay with Z-RR-AMC; assay type: biochemical; conditions: approximate; competitive model
T3 construct: cathepsin B (Cts B, ≥1,500 units/mg protein, solution; from human liver); purchased Sigma-Aldrich; host or cells: human liver (tissue-purified)
Protocol: as §1
Cathepsin B Inhibition Assay. For cathepsin B (Cts B, ≥1,500 units/mg protein, solution; from […]
and 5 mM DTT (pH 5.5). A stock solution of enzyme in 50 mM sodium acetate, pH 5.0, with 1 […]
Diluted solution of Cts B was […]
kinetic model in Prism 8 (GraphPad Software; La Jolla, CA) using Eq. S1 to determine Vmax and KM (Table S22). 5 Turnover number (k cat) was calculated by dividing Vmax by the enzyme concentration(Table S22).
as §2, §3, §4, §5, §6, §7

Cts S = molecular target: T4, Cts S (Homo sapiens, UniProt P25774); experiment: Cathepsin S inhibition assay with Z-LR-AMC; assay type: biochemical; conditions: approximate; competitive model
T4 construct: purchased Sigma-Aldrich; host or cells: FreeStyle 293-F cells
Protocol: as §1
Cathepsin S Inhibition Assay. For cathepsin S (Cts S, 2 mg/mL, solution; recombinant, expressed in FreeStyle™ 293-F cells, ≥90% pure by SDS-PAGE), various concentrations of the substrate Z- […]
A stock solution of 2 mg/mL enzyme in 45 mM Tris-HCl, pH 8.0, 124 mM NaCl, 2.4 mM KCl, 225 mM imidazole, 3 mM DTT, and 10% glycerol was diluted with assay buffer containing 5 mM DTT. Peptide (inhibitor) stock solutions […]
with the assay buffer. A 20 mM stock solution of the chromogenic substrate Z-LR-AMC (Bachem; […]
assay to ensure reproducibility. […]
progress curve (Figure S23). Similar to the analysis with Cts L, these curves were fit to Michaelis - Menten enzyme kinetic model in Prism 8 (GraphPad Software; La Jolla, CA) using Eq. S1 to determine Vmax and KM (Table S21). 5 Turnover number (k cat) was calculated by dividing Vmax by the enzyme concentration (Table S21).
as §2, §3
the mechanism with the parameter α. Further fitting to an appropriate model (e.g. uncompetitive, competitive, or non-competitive model) was performed if needed. […]

T2 sequence (P07711 114-333): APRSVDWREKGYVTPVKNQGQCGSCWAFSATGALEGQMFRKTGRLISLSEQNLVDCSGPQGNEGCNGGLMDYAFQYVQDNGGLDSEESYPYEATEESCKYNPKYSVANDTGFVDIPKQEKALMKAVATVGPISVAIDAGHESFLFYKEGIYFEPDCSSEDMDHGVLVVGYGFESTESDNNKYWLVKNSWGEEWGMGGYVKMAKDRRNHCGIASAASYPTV
T4 sequence (P25774 115-331): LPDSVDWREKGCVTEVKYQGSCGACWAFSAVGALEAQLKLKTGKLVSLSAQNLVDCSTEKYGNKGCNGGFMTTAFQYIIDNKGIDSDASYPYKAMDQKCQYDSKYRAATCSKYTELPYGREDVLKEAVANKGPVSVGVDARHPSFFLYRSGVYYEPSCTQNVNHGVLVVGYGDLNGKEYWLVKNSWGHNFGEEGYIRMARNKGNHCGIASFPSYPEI
T1 sequence (O60911 114-334): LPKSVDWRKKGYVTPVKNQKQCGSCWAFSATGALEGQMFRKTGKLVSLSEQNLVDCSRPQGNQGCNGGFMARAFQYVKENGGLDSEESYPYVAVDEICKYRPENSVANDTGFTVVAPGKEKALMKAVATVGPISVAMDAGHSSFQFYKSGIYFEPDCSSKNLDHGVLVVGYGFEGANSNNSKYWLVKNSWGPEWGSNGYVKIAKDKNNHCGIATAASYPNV

## COc1ccc2c(C[C@H](NC(=O)[C@H](C)NC(=S)[C@H](CCCNC(=N)N)NC(=O)[C@H](Cc3ccccc3)NC(=O)[C@H](CC(C)C)NC(=O)[C@H](Cc3c[nH]cn3)NC(=O)[C@@H](N)Cc3cc(=O)oc4cc(OC)ccc34)C(=O)O)cc(=O)oc2c1 [R^S1A] (H-[Ala(7-MeO-coumarin-4-yl)]HLF[X1][Ala(7-MeO-coumarin-4-yl)]-OH)
Cts V
  Ki: 26.2 ± 8.42 µM
[1]
  half-life at 20 μM: 28.6 h
Cts L [2]
  IC50: 19 µM and 19.3 µM

## μHLFRAμ (H-[Ala(7-MeO-coumarin-4-yl)]HLFRA[Ala(7-MeO-coumarin-4-yl)]-OH; SMILES COc1ccc2c(C[C@H](NC(=O)[C@H](C)NC(=O)[C@H](CCCNC(=N)N)NC(=O)[C@H](Cc3ccccc3)NC(=O)[C@H](CC(C)C)NC(=O)[C@H](Cc3c[nH]cn3)NC(=O)[C@@H](N)Cc3cc(=O)oc4cc(OC)ccc34)C(=O)O)cc(=O)oc2c1)
Cathepsin B (Cts B)
  cleaved bond: R-A
[3]
  fragment found: µHLFR; Aµ, 5 mins
HepG2 whole cell lysate
  fragment found: μHLFR, 5 mins; also recorded: Aμ, 5 mins

## COc1ccc2c(C[C@H](NC(=O)[C@H](C)NC(=S)[C@H](CCCNC(=N)N)NC(=O)[C@H](Cc3ccccc3)NC(=O)[C@H](CC(C)C)NC(=O)[C@H](Cc3c[nH]cn3)NC(=O)[C@@H](N)Cc3cc(=O)oc4cc(OC)ccc34)C(=O)O)cc(=O)oc2c1 [RS1A] (H-[Ala(7-MeO-coumarin-4-yl)]HLF[X1][Ala(7-MeO-coumarin-4-yl)]-OH)
Cts L [4]
  Ki: 1.11 ± 0.22 µM
Cts B
  Ki: > 50 µM
Cts S
  Ki: 53.5 ± 11.4 µM
